{"source": "patent US9253980B2", "about": "(priority 2011, dated 2016)", "test_system": "Puccinia recondita", "experiment": "Control of brown rust on wheat caused by Puccinia recondita (greenhouse, comparative)", "format": "in vivo", "conditions": "500 ppm spray to run-off one day before inoculation; % diseased leaf area, visually assessed; untreated control 90", "description": "The spray solutions were prepared in several steps:\nThe stock solution were prepared: a mixture of acetone and/or dimethylsulfoxide and the wetting agent/emulsifier Wettol, which is based on ethoxylated alkylphenoles, in a relation (volume) solvent-emulsifier of 99 to 1 was added to 25 mg of the compound to give a total of 5 ml. Water was then added to total volume of 100 ml.\nThis stock solution was diluted with the described solvent-emulsifier-water mixture to the given concentration.\nThe first two developed leaves of pot-grown wheat seedling were sprayed to run-off with an aqueous suspension, containing 500 ppm of active ingredient as described below. The next day the plants were inoculated with spores of Puccinia recondita. To ensure the success the artificial inoculation, the plants were transferred to a humid chamber without light and a relative humidity of 95 to 99% and 20 to 24° C. for 24 h. Then the trial plants were cultivated for 6 days in a greenhouse chamber at 20-24° C. and a relative humidity between 65 and 70%. The extent of fungal attack on the leaves was visually assessed as % diseased leaf area.", "data": [{"smiles": "Cn1c(=O)c2sc3c(=O)n(C)c(=O)c3sc2c1=O", "values": [{"measurement": "Disease level (%)", "result": 80, "unit": "%"}]}, {"smiles": "COn1c(=O)c2sc3c(=O)n(OC)c(=O)c3sc2c1=O", "note": "[I-2, 2.6-Dimethoxy-1H.5H-[1.4]dithiino[2,3-c:5.6-c′]dipyrrol-1.3.5.7(2H.6H)tetrone]", "values": [{"measurement": "Disease level (%)", "result": 45, "unit": "%"}]}]}
